# Target: human ACC2 (Homo sapiens (Human), UniProt O00763)
# Test: ACC2 assay (spectrophotometric 384 well assay, NADH-linked kinetic method)
# Format: biochemical
# Conditions: hACC2 construct lacking 128 N-terminal amino acids; coupled lactate dehydrogenase/pyruvate kinase reaction, 340 nm, 25° C.
# Method in brief: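 Baculovirus/insect-cell human ACC2, anion-exchange purified; ADP formation coupled to pyruvate kinase/lactate dehydrogenase, NADH loss followed at 340 nm, 25° C, 15 min. Final 200 μM NADH and acetyl-CoA, 500 uM ATP; vehicle and no-acetyl-CoA wells set 100% and 0%.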
# human ACC2, sequence (O00763 129-2458): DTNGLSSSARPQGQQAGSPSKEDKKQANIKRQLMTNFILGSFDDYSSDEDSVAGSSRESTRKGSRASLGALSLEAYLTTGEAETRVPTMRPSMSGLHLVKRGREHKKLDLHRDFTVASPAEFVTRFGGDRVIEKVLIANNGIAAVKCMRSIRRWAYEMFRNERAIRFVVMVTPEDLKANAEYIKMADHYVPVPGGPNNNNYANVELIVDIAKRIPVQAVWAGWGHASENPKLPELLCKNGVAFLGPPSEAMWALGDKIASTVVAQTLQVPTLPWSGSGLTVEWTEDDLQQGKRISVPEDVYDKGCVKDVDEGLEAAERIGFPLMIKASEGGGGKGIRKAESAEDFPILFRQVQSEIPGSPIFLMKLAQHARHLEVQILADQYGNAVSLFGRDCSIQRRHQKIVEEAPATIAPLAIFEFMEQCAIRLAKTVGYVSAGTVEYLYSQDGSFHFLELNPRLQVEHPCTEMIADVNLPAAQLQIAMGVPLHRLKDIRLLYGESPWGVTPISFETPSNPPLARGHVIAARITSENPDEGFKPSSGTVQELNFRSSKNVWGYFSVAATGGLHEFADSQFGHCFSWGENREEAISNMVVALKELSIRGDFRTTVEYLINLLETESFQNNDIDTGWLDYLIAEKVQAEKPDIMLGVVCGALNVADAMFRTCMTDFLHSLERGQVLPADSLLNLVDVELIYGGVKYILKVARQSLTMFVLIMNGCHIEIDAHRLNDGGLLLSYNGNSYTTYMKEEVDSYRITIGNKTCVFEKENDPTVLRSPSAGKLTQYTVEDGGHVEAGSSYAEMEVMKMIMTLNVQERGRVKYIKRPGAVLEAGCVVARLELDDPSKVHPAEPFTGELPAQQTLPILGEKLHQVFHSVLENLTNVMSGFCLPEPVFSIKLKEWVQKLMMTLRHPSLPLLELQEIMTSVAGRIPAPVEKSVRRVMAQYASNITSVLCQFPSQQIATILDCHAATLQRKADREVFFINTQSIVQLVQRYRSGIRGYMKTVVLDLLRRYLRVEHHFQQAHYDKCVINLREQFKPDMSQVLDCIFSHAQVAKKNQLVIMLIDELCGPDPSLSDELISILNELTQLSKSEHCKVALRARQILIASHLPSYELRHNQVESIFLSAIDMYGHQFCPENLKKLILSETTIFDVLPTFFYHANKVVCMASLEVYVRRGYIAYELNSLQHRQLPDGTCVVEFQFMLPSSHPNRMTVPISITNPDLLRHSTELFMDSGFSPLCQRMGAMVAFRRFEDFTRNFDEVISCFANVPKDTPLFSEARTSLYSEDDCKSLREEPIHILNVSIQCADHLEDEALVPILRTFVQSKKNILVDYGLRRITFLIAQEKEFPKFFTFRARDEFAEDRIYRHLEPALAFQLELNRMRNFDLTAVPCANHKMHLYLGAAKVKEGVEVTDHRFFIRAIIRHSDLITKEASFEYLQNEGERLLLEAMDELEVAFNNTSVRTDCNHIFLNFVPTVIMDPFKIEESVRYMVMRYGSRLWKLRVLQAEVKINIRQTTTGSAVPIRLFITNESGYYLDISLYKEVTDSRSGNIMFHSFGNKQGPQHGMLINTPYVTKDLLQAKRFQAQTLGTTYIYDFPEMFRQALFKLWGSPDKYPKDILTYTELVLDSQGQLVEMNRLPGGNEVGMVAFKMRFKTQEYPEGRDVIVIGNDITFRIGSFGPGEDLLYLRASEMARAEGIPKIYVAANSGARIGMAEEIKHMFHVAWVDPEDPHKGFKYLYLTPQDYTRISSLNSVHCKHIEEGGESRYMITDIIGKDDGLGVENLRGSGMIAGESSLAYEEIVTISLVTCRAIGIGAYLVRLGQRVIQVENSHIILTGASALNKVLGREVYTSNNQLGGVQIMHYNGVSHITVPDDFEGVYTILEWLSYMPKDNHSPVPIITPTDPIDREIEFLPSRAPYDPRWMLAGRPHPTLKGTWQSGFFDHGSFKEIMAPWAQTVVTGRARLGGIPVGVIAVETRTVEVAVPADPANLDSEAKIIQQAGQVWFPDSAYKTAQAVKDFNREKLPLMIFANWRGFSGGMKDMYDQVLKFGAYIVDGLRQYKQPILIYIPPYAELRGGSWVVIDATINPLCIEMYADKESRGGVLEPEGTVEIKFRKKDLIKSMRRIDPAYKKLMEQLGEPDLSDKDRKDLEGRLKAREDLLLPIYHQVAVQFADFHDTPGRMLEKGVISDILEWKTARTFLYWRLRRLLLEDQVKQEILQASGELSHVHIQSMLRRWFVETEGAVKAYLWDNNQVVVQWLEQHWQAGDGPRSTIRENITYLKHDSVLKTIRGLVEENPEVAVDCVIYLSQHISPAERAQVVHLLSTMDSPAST
row,IC50,SMILES
1,1.06 µM,COC1CCCN(c2ncnc(N3CC[C@@H](Oc4ccc([C@H](C)NC(C)=O)cc4)C3)c2F)C1 (stereo partly shown) [Example 8.252]
2,0.06 µM,CC(=O)N[C@@H](C)c1ccc(O[C@@H]2CCN(c3nc(N4CCCC4C)ncc3F)C2)cc1 (stereo partly shown) [Example 8.254]
3,0.18 µM,CCN(c1nccc(N2CC[C@@H](Oc3ccc([C@H](C)NC(C)=O)cc3)C2)n1)C(C)C [Example 8.260]
4,0.995 µM,CC(=O)N[C@@H](C)c1ccc(O[C@@H]2CCN(c3nc(N(C)CC(C)(C)O)ncc3Cl)C2)cc1 [Example 8.266]
5,0.064 µM,CC(=O)N[C@@H](C)c1ccc(O[C@@H]2CCN(c3nc(N(C)C4CCC4)ncc3Cl)C2)cc1 [Example 8.267]
6,0.198 µM,CC(=O)N[C@@H](C)c1ccc(O[C@@H]2CCN(c3ncnc(N(C)CC(C)C)c3F)C2)cc1 [Example 8.268]
7,0.188 µM,CC(=O)N[C@@H](C)c1ccc(O[C@@H]2CCN(c3ncnc(N4CCC(C)(O)C4)c3F)C2)cc1 (stereo partly shown) [Example 8.269]
8,0.455 µM,COCCCN(C)c1ncnc(N2CC[C@@H](Oc3ccc([C@H](C)NC(C)=O)cc3)C2)c1F [Example 8.270]
9,0.17 µM,CC(=O)N[C@@H](C)c1ccc(O[C@@H]2CCN(c3nc(N4CCCC4(C)C)ncc3F)C2)cc1 [Example 8.271]
10,0.673 µM,CC(=O)N[C@@H](C)c1ccc(O[C@@H]2CCN(c3ncnc(N4C[C@@H]5CC[C@@H](C4)O5)c3F)C2)cc1 [Example 8.278]

# The remaining lines, values behind:
row,SMILES,IC50
1,CC(=O)N[C@@H](C)c1ccc(O[C@@H]2CCN(c3ccnc(N(C)C4CCC4)n3)C2)cc1 [Example 8.253],0.079 µM
2,CC(=O)N[C@@H](C)c1ccc(O[C@@H]2CCN(c3nc(N(C)C4CCCOC4)ncc3Cl)C2)cc1 (stereo partly shown) [Example 8.255],0.303 µM
3,CC(=O)N[C@@H](C)c1ccc(O[C@@H]2CCN(c3nc(N4CCC(C)(O)C4)ncc3Cl)C2)cc1 (stereo partly shown) [Example 8.256],0.303 µM
4,CC(=O)N[C@@H](C)c1ccc(O[C@@H]2CCN(c3nc(N4CCOC(C(F)(F)F)C4)ncc3F)C2)cc1 (stereo partly shown) [Example 8.257],0.121 µM
5,CC(=O)N[C@@H](C)c1ccc(O[C@@H]2CCN(c3nc(N(C)C[C@@H]4CCCO4)ncc3Cl)C2)cc1 [Example 8.258],0.105 µM
6,CO[C@H]1CCN(c2ncc(F)c(N3CC[C@@H](Oc4ccc([C@H](C)NC(C)=O)cc4)C3)n2)C1 [Example 8.259],0.173 µM
7,CC(=O)N[C@@H](C)c1ccc(O[C@@H]2CCN(c3nc(N4CCC(F)(F)CC4)ncc3F)C2)cc1 [Example 8.261],0.096 µM
8,COC[C@@H]1CCCN1c1ncc(F)c(N2CC[C@@H](Oc3ccc([C@H](C)NC(C)=O)cc3)C2)n1 [Example 8.262],0.129 µM
9,CCN(CCO)c1nccc(N2CC[C@@H](Oc3ccc([C@H](C)NC(C)=O)cc3)C2)n1 [Example 8.263],0.698 µM
10,CC(=O)N[C@@H](C)c1ccc(O[C@@H]2CCN(c3ccnc(N4CCCOCC4)n3)C2)cc1 [Example 8.264],0.282 µM
11,CC(=O)N[C@@H](C)c1ccc(O[C@@H]2CCN(c3ccnc(N4CC[C@H](F)C4)n3)C2)cc1 [Example 8.265],0.379 µM
12,CC(=O)N[C@@H](C)c1ccc(O[C@@H]2CCN(c3nc(N4CC5COCC5C4)ncc3F)C2)cc1 (stereo partly shown) [Example 8.272],1.19 µM
13,CC(=O)N[C@@H](C)c1ccc(O[C@@H]2CCN(c3nc(N4CCC(C)(O)CC4)ncc3F)C2)cc1 [Example 8.273],1.35 µM
14,CC(=O)N[C@@H](C)c1ccc(O[C@@H]2CCN(c3nc(N4CCOC(C)C4)ncc3F)C2)cc1 (stereo partly shown) [Example 8.274],0.13 µM
15,COC1CCCN(c2ncc(F)c(N3CC[C@@H](Oc4ccc([C@H](C)NC(C)=O)cc4)C3)n2)C1 (stereo partly shown) [Example 8.275],0.183 µM
16,CC(=O)N[C@@H](C)c1ccc(O[C@@H]2CCN(c3nc(N4CCC5(CC5)C4)ncc3Cl)C2)cc1 [Example 8.276],0.174 µM
17,CC(=O)N[C@@H](C)c1ccc(O[C@@H]2CCN(c3ccnc(N4C[C@@H]5CC[C@@H](C4)O5)n3)C2)cc1 [Example 8.277],0.867 µM
18,CC(=O)N[C@@H](C)c1ccc(O[C@@H]2CCN(c3nc(N4C[C@@H]5CC[C@@H](C4)O5)ncc3F)C2)cc1 [Example 8.279],0.369 µM
